Test results published in patent US11319298B2 (Merck Sharp & Dohme Corp., priority 2016, dated 2022).

Each compound was assayed against T1, human M4 muscarinic acetylcholine receptor (Homo sapiens, UniProt P08173) (assay: human FLIPR-based M4 PAM assay, CHO-K1 cells stably transfected with human M4 receptor and chimeric G-protein Gαqi5). Details: inflection point (IP) of dose response curve; acetylcholine added at 20% of maximum response; CHO-K1 human M4/Gαqi5, FLIPR Tetra.
T1 construct: expressed in transfected cells; host or cells: CHO-K1
T1 sequence (P08173 1-479): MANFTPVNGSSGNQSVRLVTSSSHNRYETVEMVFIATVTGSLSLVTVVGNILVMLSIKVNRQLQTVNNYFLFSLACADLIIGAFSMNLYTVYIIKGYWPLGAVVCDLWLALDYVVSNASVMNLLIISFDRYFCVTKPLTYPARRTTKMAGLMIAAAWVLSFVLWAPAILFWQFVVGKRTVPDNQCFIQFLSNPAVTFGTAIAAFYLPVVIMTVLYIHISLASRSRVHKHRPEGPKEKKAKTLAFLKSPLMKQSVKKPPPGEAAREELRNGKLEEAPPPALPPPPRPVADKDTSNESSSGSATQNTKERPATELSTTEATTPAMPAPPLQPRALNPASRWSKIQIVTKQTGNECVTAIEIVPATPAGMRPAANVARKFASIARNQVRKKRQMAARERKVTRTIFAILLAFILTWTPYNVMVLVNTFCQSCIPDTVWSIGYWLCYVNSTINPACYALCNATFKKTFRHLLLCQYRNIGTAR
Format: cell-based
Experimental: In a typical experiment the M4 muscarinic acetylcholine receptor modulating activity of the compounds of the present invention was determined in accordance with the following experimental method. CHO-K1 cells stably transfected with human M4 receptor and chimeric G-protein Gαqi5 (Coward P, et al., Analytical Biochemistry, 270:242-248 (1999)) are thawed from liquid N2 storage, resuspended in growth medium, plated in black, clear bottom 384 well plates, and incubated 16-20 hours at 37° C., 5% CO2. On the day of assay, growth medium is removed, the cells are washed 2 times with wash buffer, and cells are incubated in dye loading buffer at 37° C., 5% CO2 for ˜1 hour. Following dye loading the cell plates are placed in a FLIPR Tetra instrument and while monitoring dye fluorescence (excitation […]), 10 uL of test substance at increasing concentrations is added, and fluorescence values are recorded for 4 min. Next, 10 uL of acetylcholine is added (final concentration calculated so as to achieve 20% of the maximum acetycholine response), and the fluorescence reading is continued for 3.5 min. In some cases, a third addition of acetylcholine (final concentration calculated to achieve 70% of the maximal acetylcholine response) is performed. The resulting dose response curves are fit to a 4 parameter logistic equation and the final result is determined as the inflection point (IP) of the curve
CHO-K1 cells stably transfected with human M4 receptor and chimeric G-protein Gαqi5 are thawed from liquid N2 storage, resuspended in growth medium, plated in black, clear bottom 384 well plates, and incubated 16-20 hours at 37° C., 5% CO2.
On the day of assay, growth medium is removed, the cells are washed 2 times with wash buffer, and cells are incubated in dye loading buffer at 37° C., 5% CO2 for ˜1 h. Following dye loading the cell plates are placed in a FLIPR Tetra instrument and while monitoring dye fluorescence ([…]), 10 uL of test substance at increasing concentrations is added, and fluorescence values are recorded for 4 min. Next, 10 uL of acetylcholine is added (final concentration calculated so as to achieve 20% of the maximum acetycholine response), and the fluorescence reading is continued for 3.5 min. In some cases, a third addition of acetylcholine (final concentration calculated to achieve 70% of the maximal acetylcholine response) is performed.

Row | SMILES | EC50 [nM]
1 | Cc1c(-c2cccnc2)ncnc1N1CCC(Oc2cccc(C#N)c2)CC1 [Example 244, 3-((1-(5-methyl-6-(pyridin-3-yl)pyrimidin-4-yl)piperidin-4-yl)oxy)benzonitrile] | 461
2 | Cc1c(Cl)nc(CO)nc1N1CCC(Oc2ccc3ccn(C)c(=O)c3c2)CC1 [Example 9, 7-((1-(6-chloro-2-(hydroxymethyl)-5-methylpyrimidin-4-yl)piperidin-4-yl)oxy)-2-methylisoquinolin-1(2H)-one] | 2490
3 | COc1ccc(OC2CCN(c3ncnc(N4CC(F)(F)C4)c3C)CC2)cn1 [Example 236, 4-(3,3-difluoroazetidin-1-yl)-6-(4-((6-methoxypyridin-3-yl)oxy)piperidin-1-yl)-5-methylpyrimidine] | 228
4 | COc1ccc(OC2CCN(c3nnc(C(=O)NC4CNC(=O)C4)cc3C)CC2)cn1 (stereo not shown) [Example 145, 6-{4-[(6-methoxypyridin-3-yl)oxy]piperidin-1-yl}-5-methyl-N-(5-oxopyrrolidin-3-yl)pyridazine-3-carboxamide] | 194
5 | COc1ccc(OC2CCN(c3nc(SC)nc(Cl)c3C)CC2)cc1 [Example 16, 4-chloro-6-(4-(4-methoxyphenoxy)piperidin-1-yl)-5-methyl-2-(methylthio)pyrimidine] | 1830
6 | CCOC(=O)c1cc(C)c(N2CCC(Oc3cccc(C#N)c3)CC2)nn1 [Example 105, ethyl 6-(4-(3-cyanophenoxy)piperidin-1-yl)-5-methylpyridazine-3-carboxylate] | 58
7 | COc1ccc(OC2CCN(c3nnc(C(=O)N[C@@H]4CCCc5ccccc54)cc3C)CC2)cn1 [Example 187, 6-{4-[(6-methoxypyridin-3-yl)oxy]piperidin-1-yl}-5-methyl-N-[(1R)-1,2,3,4-tetrahydronaphthalen-1-yl]pyridazine-3-carboxamide] | 1330
8 | COc1ccc(OC2CCN(c3ncnc(CC(C)C)c3C)CC2)cn1 [Example 255, 4-isobutyl-6-(4-((6-methoxypyridin-3-yl)oxy)piperidin-1-yl)-5-methylpyrimidine] | 2520
9 | COc1ccc(OC2CCN(c3nc(C)nc(C)c3C)CC2)cn1 [Example 104, 4-(4-((6-methoxypyridin-3-yl)oxy)piperidin-1-yl)-2,5,6,-trimethylpyrimidine] | 91
10 | Cc1c(Cl)nc(CO)nc1N1CCC(Oc2ccc3c(c2)C(=O)N(C)C3)CC1 [Example 33, 6-((1-(6-chloro-2-(hydroxymethyl)-5-methypyrimidin-4-yl)piperidin-4-yl)oxy)-2-methylisoindolin-1-one] | 210
11 | Cc1cc(C(=O)NCc2ccncc2)nnc1N1CCC(Oc2ccc3[nH]ncc3c2)CC1 [Example 111, 6-[4-(1H-indazol-5-yloxy)piperidin-1-yl]-5-methyl-N-(pyridin-4-ylmethyl)pyridazine-3-carboxamide] | 40
12 | COc1ccc(OC2CCN(c3nnc(-c4nnc(C)o4)cc3C)CC2)cn1 [Example 263, 2-(6-(4-((6-Methoxypyridin-3-yl)oxy)piperidin-1-yl)-5-methylpyridazin-3-yl)-5-methyl-1,3,4-oxadiazole] | 251
13 | Cc1ncc(C)c(N2CCC(Oc3ccc4c(c3)C(=O)OC4)CC2)n1 [Example 99, 6-((1-(2,5-Dimethylpyrimidin-4-yl)piperidin-4-yl)oxy)isobenzofuran-1(31-1)-one] | 319
14 | Cc1cc(C(=O)NCc2ccccc2Cl)nnc1N1CCC(Oc2cccc(C#N)c2)CC1 [Example 199, N-(2-chlorobenzyl)-6-[4-(3-cyanophenoxy)piperidin-1-yl]-5-methylpyridazine-3-carboxamide] | 118
15 | CNC(=O)c1cc(C)c(N2CCC(Oc3ccc(OC)nc3)CC2)nc1C [Example 189, 6-{4-[(6-methoxypyridin-3-yl)oxy]piperidin-1-yl}-N,2,5-trimethylpyridine-3-carboxamide] | 1870
16 | COc1ccc(OC2CCN(c3nnc(C(=O)N[C@H]4CCc5ncccc5C4)cc3C)CC2)cn1 [Example 141B, (S)-6-(4-((6-methoxypyridin-3-yl)oxy)piperidin-1-yl)-5-methyl-N-(5,6,7,8-tetrahydroquinolin-6-yl)pyridazine-3-carboxamide] | 173

Row | SMILES | EC50 [nM]
17 | Cc1ncc(C)c(N2CCC(Oc3ccc4[nH]ncc4c3)CC2)n1 [Example 59, 5-((1-(2,5-dimethylpyrimidin-4-yl)piperidin-4-yl)oxy)-1H-indazole] | 66
18 | Cc1c(Cl)nc(CO)nc1N1CCC(Oc2ccc(S(C)(=O)=O)cc2)CC1 [Example 8, (4-chloro-5-methyl-6-(4-(4-(methylsulfonyl)phenoxy)piperidin-1-yl)pyrimidin-2-yl)methanol] | 1360
19 | Cc1nnc(N2CCC(Oc3cccc(C#N)c3)CC2)c(C#N)c1C [Example 11, 3-(4-(3-cyanophenoxy)piperidin-1-yl)-5,6-dimethylpyridazine-4-carbonitrile] | 1130
20 | Cc1cc(C(=O)NCc2ccncc2)nnc1N1CCC(Oc2cccnc2)CC1 [Example 122, 5-methyl-N-(pyridin-4-ylmethyl)-6-[4-(pyridin-3-yloxy)piperidin-1-yl]pyridazine-3-carboxamide] | 101
21 | COc1ccc(OC2CCN(c3nnc(C(=O)NCc4ccncc4)cc3C)CC2)cn1 [Example 109, 6-{4-[(6-methoxypyridin-3-yl)oxy]piperidin-1-yl}-5-methyl-N-(pyridin-4-ylmethyl)pyridazine-3-carboxamide] | 34
22 | COc1ccc(OC2CCN(c3nc(C)ncc3C)CC2)cc1 [Example 69, 4-(4-(4-methoxyphenoxy)piperidin-1-yl)-2,5-dimethylpyrimidine] | 126
23 | Cc1cc(C(=O)NCc2ccncc2Cl)nnc1N1CCC(Oc2cccc(C#N)c2)CC1 [Example 151, N-[(3-chloropyridin-4-yl)methyl]-6-[4-(3-cyanophenoxy)piperidin-1-yl]-5-methylpyridazine-3-carboxamide] | 241
24 | COc1ccc(OC2CCN(c3ncnc(N4CC5(COC5)C4)c3C)CC2)cn1 [Example 233, 6-(6-(4-((6-methoxypyridin-3-yl)oxy)piperidin-1-yl)-5-methylpyrimidin-4-yl)-2-oxa-6-azaspiro[3.3]heptane] | 2100
25 | COc1ccc(O[C@@H]2CCN(c3nnc(C(=O)NCc4ccncc4)cc3C)C[C@@H]2F)cn1 [Example 125, 6-{(3S,4R)-3-fluoro-4-[(6-methoxypyridin-3-yl)oxy]piperidin-1-yl}-5-methyl-N-(pyridin-4-ylmethyl)pyridazine-3-carboxamide] | 102
26 | COc1ccc(OC2CCN(c3nnc(C(=O)NCc4c(C)nc5ccccn45)cc3C)CC2)cn1 [Example 149, 6-{4-[(6-methoxypyridin-3-yl)oxy]piperidin-1-yl}-5-methyl-N-[(2-methylimidazo[1,2-a]pyridin-3-yl)methyl]pyridazine-3-carboxamide] | 228
27 | COc1ccc(OC2CCN(c3nc(Cl)nc(Cl)c3C)CC2)cc1 [Example 77, 2,4-dichloro-6-(4-(4-methoxyphenoxy)piperidin-1-yl)-5-methylpyrimidine] | 177
28 | Cc1c(Cl)nc(CO)nc1N1CCC(Oc2ccc3c(c2)COC3)CC1 [Example 94, (4-chloro-6-(4-((1,3-dihydroisobenzofuran-5-yl)oxy)piperidin-1-yl)-5-methylpyrimidin-2-yl)methanol] | 34
29 | COc1ccc(OC2CCN(c3nc(C(=O)NC(C)(C)C)nc(Cl)c3C)CC2)cn1 [Example 212] | 705
30 | COc1ccc(OC2CCN(c3nnc(C(=O)NCc4ccncc4C)cc3C)CC2)cn1 [Example 121, 6-{4-[(6-methoxypyridin-3-yl)oxy]piperidin-1-yl}-5-methyl-N-[(3-methylpyridin-4-yl)methyl]pyridazine-3-carboxamide] | 99
31 | Cc1c(Cl)nc(C2CC2)nc1N1CCC(Oc2cccnc2)CC1 [Example 95B, 4-chloro-2-cyclopropyl-5-methyl-6-(4-(pyridin-3-yloxy)piperidin-1-yl)pyrimidine] | 435
